Measured values from PubChem BioAssay (NCI).
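Each compound was tested at five concentrations against cells in 96-well plates for 48 hours. TGI: total growth inhibition.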

How the values were obtained:
Experiment in all cases: inhibition of tumour cell growth, NCI panel, 48 h
HOP-62 NSCLC = system: HOP-62 NSCLC
RPMI-8226 leukemia = system: RPMI-8226 leukemia
HS 578T breast = system: HS 578T breast
SW-620 colon = system: SW-620 colon
BT-549 breast = system: BT-549 breast
K-562 leukemia = system: K-562 leukemia
HCC-2998 colon = system: HCC-2998 colon
786-0 renal = system: 786-0 renal
ACHN renal = system: ACHN renal

| Structure (SMILES) | TGI (HOP-62 NSCLC) [µM] | TGI (RPMI-8226 leukemia) [µM] | TGI (HS 578T breast) [µM] | TGI (SW-620 colon) [µM] | TGI (BT-549 breast) [µM] | TGI (K-562 leukemia) [µM] | TGI (HCC-2998 colon) [µM] | TGI (786-0 renal) [µM] | TGI (ACHN renal) [µM] |
| --- | --- | --- | --- | --- | --- | --- | --- | --- | --- |
| C/C(=N\O)c1cccc[n+]1Cc1ccccc1 | > 100 | > 100 | > 100 | > 100 | > 100 | > 100 | > 100 | > 100 | > 100 |
| CC(Oc1ccccc1)C(=O)NNC(=O)OC(C)(C)C (centres undefined) | > 100 | > 100 | > 100 | > 100 | > 100 | > 100 | > 100 | > 100 | > 100 |
| O=C(NO)NCCCl | > 100 | > 100 | > 100 | > 100 | > 100 | > 100 | > 100 | > 100 | > 100 |
| Br[C@@H]1[C@H]2c3nc4ccccc4nc3[C@@H]1C[C@H]2Br | > 100 | – | > 100 | > 100 | > 100 | > 100 | > 100 | > 100 | > 100 |
| O=c1c(Cc2ccc(Cl)cc2)nnc2sc(-c3ccc(-c4ccc(Cl)cc4Cl)o3)nn12 | > 100 | > 100 | > 100 | > 100 | > 100 | > 100 | > 100 | > 100 | > 100 |
| C/C(=C/CC[C@]1(CO)CC[C@]2(C)[C@H](CC[C@@H]3[C@@]4(C)CC[C@H](OC5OC(CO)C(O)C(O)C5OC5OC(CO)C(O)C(O)C5O)C(C)(C)[C@@H]4CC[C@]32C)[C@H]1O)CO (some centres undefined) | > 100 | > 100 | > 100 | > 100 | > 100 | > 100 | – | > 100 | > 100 |
| CSc1nc(N)c2c(-c3ccccc3)c3c(nc2n1)CCCC3 | > 100 | > 100 | 48.5 | > 100 | > 100 | > 100 | – | – | > 100 |
| CC(C)C1=CC(=O)[C@@](C)(C2[C@H](O)C[C@@]3(C)[C@@H]4CC=C5[C@@H](CC[C@@H](OC6OCC(O)C(O)C6OC6OC(C)C(O)C(O)C6O)C5(C)C)[C@]4(C)C(=O)C[C@]23C)O1 (some centres undefined) | > 100 | > 100 | > 100 | > 100 | > 100 | > 100 | > 100 | > 100 | > 100 |
| C=C1C(=O)O[C@H]2C[C@@H]1[C@@H](O)[C@H](O)[C@@H](C)CCCC(C)=CCC[C@@]2(C)O | > 100 | 45.3 | 43.9 | – | 25.9 | > 100 | 60.5 | 52 | 27.8 |
| COc1cc2c(cc1OC)C(=O)/C(=C/c1cc(C)cc(C)c1)C2 | > 61.2 | > 42.6 | > 100 | > 90.7 | 60.4 | > 38 | 2.14 | > 44.6 | > 100 |
| O=c1[nH]c(=O)n(COCc2ccccc2)cc1Nc1ccc(Br)cc1 | 88.7 | > 100 | > 100 | > 100 | > 100 | > 100 | > 100 | > 100 | > 100 |
